Measured values taken from PMC9977398, “Next-generation membrane-active glycopeptide antibiotics that also inhibit bacterial cell division” (Chemical Science, 2023).

Key:
biofilms of MRSA = experiment: Disruption of mature biofilms, confocal microscopy; assay type: cell-based, S. aureus; conditions: 20 μM; for thickness of biofilm after treatment: 24 h, untreated 11.8 μm
From the text: Another growing challenge in treating bacterial infections is the formation of biofilms, which are recalcitrant to antibiotic treatment.[29] Most antibiotics including vancomycin are rendered ineffective against biofilms consisting of both dividing and non-dividing cells, majorly due to their inability to penetrate through the extracellular polymeric matrix. Thus, it is important to develop compounds that eradicate biofilms as well as planktonic cells. Untreated biofilms of MRSA grew to a thickness of 11.8 μm (Fig. S3A ^†). The vancomycin-treated biofilms remained intact with thickness similar to the untreated control. […]
were added to it the wells containing bacterial suspension. Fluorescence has monitored at excitation wavelength of 535 nm (slit width: 10 nm) and emission wavelength of 617 nm (slit width: 5 nm). As a measure of inner membrane permeabilization the uptake of PI was monitor by the increase in fluorescence for 30-50 min. For assessing depolarisation against stationary phase cells of MRSA ATCC 33591, cells were grown to the stationary phase for 16 h. The culture was then diluted to an OD600 of 0.2 and the depolarisation assays was performed as described. The experiments were performed three times independently in duplicates and the graph is representative of the results from all experiments.
Cytoplasmic membrane depolarization assay5
Mid log phase MRSA were harvested (3500 rpm, 5 min), washed in 5 mM glucose and 5 mM HEPES buffer (pH 7.2) in 1:1 ratio and resuspended in 5 mM HEPES buffer, 5 mM glucose and 100 mM KCl solution in 1:1:1 ratio. Then 2 μM of 3, 3′-Dipropylthiadicarbocyanine iodide (DiSC3(5)) was added to bacterial suspension and pre-incubated for 45 min. The fluorescence was monitored at excitation wavelength of 622 nm and emission wavelength of 670 nm. Then 20 μL of test compound and vancomycin were added to black well plates containing bacterial suspension and DiSC3(5) after 2-4 min of fluorescence measurement. As a measure of membrane depolarization fluorescence was monitor for another 35 min. […]

MRSA = experiment: Frequency of resistance; assay type: cell-based, S. aureus
From the text: Having observed the multiple mechanisms of VanQAmC10, the potential as a preclinical candidate was examined. […] The frequency of resistance for both vancomycin and VanQAmC10 against MRSA was <10^−8 indicating the absence of spontaneous mutants.

VRSA = experiment: Time-kill kinetics against VRSA; assay type: cell-based, S. aureus
wild-type E. coli = experiment: Light microscopy of wild-type E. coli (lysis); assay type: cell-based; conditions: VanQAmC10 25 μM, vancomycin 34 μM (Fig. 5A)
Protocol: Over 240 minutes, E. coli treated with VanQAmC10 (at 25 μM), gradually grow bulky before finally lysing (ESI Video ^†). It punctured the cell, causing the cytoplasm to leak out as extrusions on the surface of the bacteria after which the cells flattened and disintegrated.
Fig. 5 Examination of E. coli cells treated with vancomycin, cephalexin and VanQAmC10 to study the effect on bacterial membrane integrity and cell division. (A) Light microscopy of wild-type E. coli upon treatment with vancomycin (34 μM), and VanQAmC10 (25 μM); (B) light and fluorescence microscopy in GFP-FtsZ expressing E. coli to assess morphological changes and localization of FtsZ post-treatment with VanQAmC10 (15 μM) for 40 min; (C) delocalization of GFP-FtsI in GFP-FtsI expressing E. coli through fluorescence microscopy and morphological changes through light microscopy upon treatment with vancomycin (34 μM), cephalexin (22 μM) and VanQAmC10 (10 μM); (D) light microscopy to assess morphological changes in E. coli MG1655 ΔamiAC mutant, when untreated and treated with vancomycin (3 μM) and VanQAmC10 (2 μM). Black arrows indicate morphological aberrations.

Row | Compound | thickness of biofilm after treatment (biofilms of MRSA) [μm] | frequency of resistance (MRSA) | effect on growth of VRSA (VRSA; 20 μM (sub-MIC)) | effect on E. coli cells (microscopy) (wild-type E. coli) | reduction of thickness of biofilms (biofilms of MRSA; mature MRSA biofilm) | increase in bacterial titer between 6 h and 24 h (VRSA; VRSA, 2×MIC, after initial reduction) [log CFU mL^−1] | time to complete eradication (VRSA; VRSA, 6×MIC) [h] | reduction of bacterial titer (VRSA; VRSA, at MIC, 24 h) [log CFU mL^−1]
1 | CN[C@H](CC(C)C)C(=O)N[C@H]1C(=O)N[C@@H](CC(N)=O)C(=O)N[C@H]2C(=O)N[C@H]3C(=O)N[C@H](C(=O)N[C@H](C(=O)O)c4cc(O)cc(O)c4-c4cc3ccc4O)[C@H](O)c3ccc(c(Cl)c3)Oc3cc2cc(c3O[C@@H]2O[C@H](CO)[C@@H](O)[C@H](O)[C@H]2O[C@H]2C[C@](C)(N)[C@H](O)[C@H](C)O2)Oc2ccc(cc2Cl)[C@H]1O [Vancomycin, reference compound] | 10.1 | < 10^−8 | initial growth inhibitory effect, followed by resumption of bacterial growth | did not affect the cells | – | – | – | –
2 | CCCCCCCCCCNC(=O)C[N+](C)(C)CCCNC(=O)C1NC(=O)C2NC(=O)C(NC(=O)C3NC(=O)C(CC(N)=O)NC(=O)C(NC(=O)C(CC(C)C)NC)C(O)c4ccc(c(Cl)c4)Oc4cc3cc(c4OC3OC(CO)C(O)C(O)C3OC3CC(C)(N)C(O)C(C)O3)Oc3ccc(cc3Cl)C2O)c2ccc(O)c(c2)-c2c(O)cc(O)cc21 (centres unmarked) [VanQAmC10 (8)] | 7.4 | < 10^−8 | – | completely lysed the cells | about 40% | 1 | 24 | 1.9
